Results as given in US4835258A, “Conjugation of aromatic amines or nitro-containing compounds with proteins or polypeptides by photoirradiation of the azide derivatives with ultraviolet light in order to produce antibodies against the haptens” (Northwestsern University, priority 1986, dated 1989).

How the values were obtained:
anti-ANEC-BSA serum = test: Inhibition ELISA, anti-ANEC-BSA serum on ANEC-BSA coated wells; type: binding, rabbit; settings: anti ANEC-BSA sera
[1] = Solubility in aqueous buffer; type: physicochemical; settings: insoluble above this concentration, read-out: solubility limit in aqueous buffer

In the case of `CCn1c2ccccc2c2cc(N)ccc21` [3-amino-N-ethyl-carbazole, 3-amino-N-ethylcarbazole], the IC50 (anti-ANEC-BSA serum; free hapten as inhibitor, read-out: concentration giving 50% inhibition of antibody binding) is reported as 10 µM, the “inhibition of antibody binding” value (anti-ANEC-BSA serum; free hapten at 1 mM) is reported as 70% and the solubility [1] is reported as no more than 1000 µM.
